In patent US12421240B2, “Hydropyrazino[1,2-d][1,4]diazepine compounds for the treatment of autoimmune disease” (Hoffmann-La Roche Inc., priority 2019, dated 2025):

Target: T1, human TLR8 (Homo sapiens, UniProt Q9NR97)
T1 sequence (Q9NR97 27-1041): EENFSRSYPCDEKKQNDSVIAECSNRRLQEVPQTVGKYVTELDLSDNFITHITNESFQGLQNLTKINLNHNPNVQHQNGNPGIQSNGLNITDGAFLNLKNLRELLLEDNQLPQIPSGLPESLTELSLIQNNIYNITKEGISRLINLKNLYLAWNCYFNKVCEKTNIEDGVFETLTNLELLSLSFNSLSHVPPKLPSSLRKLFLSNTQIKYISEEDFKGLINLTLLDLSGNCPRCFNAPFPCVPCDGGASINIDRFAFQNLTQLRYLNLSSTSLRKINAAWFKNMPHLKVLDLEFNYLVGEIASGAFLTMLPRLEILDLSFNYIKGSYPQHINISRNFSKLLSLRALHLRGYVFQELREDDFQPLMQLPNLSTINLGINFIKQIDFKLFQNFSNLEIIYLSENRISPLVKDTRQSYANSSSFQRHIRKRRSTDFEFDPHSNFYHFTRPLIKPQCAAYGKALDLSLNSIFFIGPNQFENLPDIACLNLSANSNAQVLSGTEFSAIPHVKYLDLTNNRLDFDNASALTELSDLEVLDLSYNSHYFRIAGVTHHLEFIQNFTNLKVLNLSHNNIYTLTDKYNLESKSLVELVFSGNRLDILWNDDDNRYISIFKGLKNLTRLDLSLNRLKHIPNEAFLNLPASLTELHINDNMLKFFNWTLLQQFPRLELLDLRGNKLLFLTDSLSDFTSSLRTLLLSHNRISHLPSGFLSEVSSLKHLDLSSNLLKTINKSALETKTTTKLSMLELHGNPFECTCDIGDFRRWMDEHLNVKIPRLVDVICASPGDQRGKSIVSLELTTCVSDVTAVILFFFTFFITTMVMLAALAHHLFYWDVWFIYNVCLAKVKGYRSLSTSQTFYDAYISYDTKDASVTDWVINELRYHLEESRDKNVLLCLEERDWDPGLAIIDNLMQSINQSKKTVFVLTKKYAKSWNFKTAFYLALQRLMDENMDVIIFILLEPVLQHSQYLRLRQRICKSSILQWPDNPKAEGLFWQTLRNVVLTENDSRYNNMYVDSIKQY
Experiment: HEK293-Blue-hTLR-8 cells assay (SEAP reporter, R848 stimulation)
Assay type: cell-based
Conditions: HEK293-Blue-hTLR8 cells, R848 ligand, 20 hrs; read-out: HEK/hTLR8 IC50
Protocol: The following tests were carried out in order to determine the activity of the compounds of formula (I), (Ia) or (Ib) in HEK293-Blue-hTLR-7/8/9 cells assay.
HEK293-Blue-hTLR-8 Cells Assay:
A stable HEK293-Blue-hTLR-8 cell line was purchased from InvivoGen (Cat. #: hkb-htlr8, San Diego, California, USA). These cells were originally designed for studying the stimulation of human TLR8 by monitoring the activation of NF-κB. A SEAP (secreted embryonic alkaline phosphatase) reporter gene was placed under the control of the IFN-β minimal promoter fused to five NF-κB and AP-1-binding sites. The SEAP was induced by activating NF-κB and AP-1 via stimulating HEK-Blue hTLR8 cells with TLR8 ligands. Therefore the reporter expression was declined by TLR8 antagonist under the stimulation of a ligand, such as R848, for incubation of 20 hrs. The cell culture supernatant SEAP reporter activity was determined using QUANTI-Blue™ kit (Cat. #: rep-qb1, Invivogen, San Diego, Ca., USA) at a wavelength of 640 nm, a detection medium that turns purple or blue in the presence of alkaline phosphatase.
HEK293-Blue-hTLR8 cells were incubated at a density of 250,000˜450,000 cells/mL in a volume of 170 μL in a 96-well plate in Dulbecco's Modified Eagle's medium (DMEM) containing 4.5 g/L glucose, 50 U/mL penicillin, […], […], 2 mM L-glutamine, 10% (v/v) heat-inactivated fetal bovine serum with addition of 20 μL test compound in a serial dilution in the presence of final DMSO at 1% and 10 μL of 60 uM R848 in above DMEM, perform incubation under 37° C. in a CO2 incubator for 20 hrs. Then 20 μL of the supernatant from each well was incubated with 180 μL Quanti-blue substrate solution at 37° C. for 2 hrs and the absorbance was read at 620-655 nm using a spectrophotometer. The signaling pathway that TLR8 activation leads to downstream NF-κB activation has been widely accepted, and therefore similar reporter assay was modified for evaluating TLR8 antagonist.

IC50 [nM]	Compound
6.4	C[C@@H]1CN(c2ccc(C#N)c3ncccc23)C[C@@H]2CCN(Cc3cc4c(cn3)CCNC4)CCN21 [Example 9, 5-[(4R,10aS)-4-methyl-8-(5,6,7,8-tetrahydro-2,6-naphthyridin-3-ylmethyl)-1,3,4,6,7,9,10,10a-octahydropyrazino[1,2-d][1,4]diazepin-2-yl]quinoline-8-carbonitrile]
86.9	C[C@@H]1CN(c2ccc(C#N)c3ncccc23)C[C@@H]2CCN(Cc3ccc(N4CCOC[C@H](N)C4)cn3)CCN21 [Example 21, 5-[(4R,10aS)-8-[[5-[(6R)-6-amino-1,4-oxazepan-4-yl]-2-pyridyl]methyl]-4-methyl-1,3,4,6,7,9,10,10a-octahydropyrazino[1,2-d][1,4]diazepin-2-yl]quinoline-8-carbonitrile]
10.1	CO[C@@H]1CN(c2cnc(CN3CC[C@H]4CN(c5ccc(C#N)n6ncc(F)c56)C[C@@H](C)N4CC3)c(F)c2)C[C@H]1N [Example 27, 4-[(4R,10aS)-8-[[5-[(3R,4R)-3-amino-4-methoxy-pyrrolidin-1-yl]-3-fluoro-2-pyridyl]methyl]-4-methyl-1,3,4,6,7,9,10,10a-octahydropyrazino[1,2-d][1,4]diazepin-2-yl]-3-fluoro-pyrazolo[1,5-a]pyridine-7-carbonitrile]
2.7	C[C@@H]1CN(c2ccc(C#N)c3ncccc23)C[C@@H]2CCN(Cc3ccc4c(c3)CNCC4)CCN21 [Example 12, 5-[(4R,10aS)-4-methyl-8-(1,2,3,4-tetrahydroisoquinolin-7-ylmethyl)-1,3,4,6,7,9,10,10a-octahydropyrazino[1,2-d][1,4]diazepin-2-yl]quinoline-8-carbonitrile]
14.1	CO[C@@H]1CN(c2ccc(CN3CC[C@H]4CN(c5ccc(C#N)c6ncccc56)C[C@@H](C)N4CC3)nc2)C[C@H]1N [Example 22, 5-[(4R,10aS)-8-[[5-[(3R,4R)-3-amino-4-methoxy-pyrrolidin-1-yl]-2-pyridyl]methyl]-4-methyl-1,3,4,6,7,9,10,10a-octahydropyrazino[1,2-d][1,4]diazepin-2-yl]quinoline-8-carbonitrile]
8.1	C[C@@H]1CN(c2ccc(C#N)c3ncccc23)C[C@@H]2CCN(Cc3cccc(N4CCNCC4)n3)CCN21 [Example 18, 5-[(4R,10aS)-4-methyl-8-[(6-piperazin-1-yl-2-pyridyl)methyl]-1,3,4,6,7,9,10,10a-octahydropyrazino[1,2-d][1,4]diazepin-2-yl]quinoline-8-carbonitrile]
7.9	CO[C@@H]1CN(c2cnc(CN3CC[C@H]4CN(c5ccc(C#N)c6ncccc56)C[C@@H](C)N4CC3)c(F)c2)C[C@H]1N [Example 24, 5-[(4R,10aS)-8-[[5-[(3R,4R)-3-amino-4-methoxy-pyrrolidin-1-yl]-3-fluoro-2-pyridyl]methyl]-4-methyl-1,3,4,6,7,9,10,10a-octahydropyrazino[1,2-d][1,4]diazepin-2-yl]quinoline-8-carbonitrile]
31.7	C[C@@H]1CN(c2ccc(C#N)c3ncccc23)C[C@@H]2CCN(Cc3ncc(N4CCNCC4)cn3)CCN21 [Example 13, 5-[(4R,10aS)-4-methyl-8-[(5-piperazin-1-ylpyrimidin-2-yl)methyl]-1,3,4,6,7,9,10,10a-octahydropyrazino[1,2-d][1,4]diazepin-2-yl]quinoline-8-carbonitrile]
1.5	C[C@@H]1CN(c2ccc(C#N)c3ncccc23)C[C@@H]2CCN(c3cc4c(cn3)CNCC4)CCN21 [Example 7, 5-[(4R,10aS)-4-methyl-8-(5,6,7,8-tetrahydro-2,7-naphthyridin-3-yl)-1,3,4,6,7,9,10,10a-octahydropyrazino[1,2-d][1,4]diazepin-2-yl]quinoline-8-carbonitrile]
